The results in this text go back to PMC11292626, “5-Fluoroindole Reduces the Bacterial Burden in a Murine Model of Mycobacterium tuberculosis Infection” (ACS Omega, 2024).

Values after ≈ are worked out from the molar mass of the structure shown.

Common to all, as to assay: microbe, parasite or virus in culture
Common to all, as to format: cell-based

For assay [1], the system named is M. tuberculosis PT12 strain. As to conditions: Mycobacterium tuberculosis, PT12STRAIN, read-out: MIC PT12.
Assay [2] deals with M. tuberculosis PT2 strain. The conditions noted are these: Mycobacterium tuberculosis, PT2STRAIN, read-out: MIC PT2.
Assay [3] has as its system M. tuberculosis PT20 strain. As to conditions: Mycobacterium tuberculosis, PT20STRAIN, read-out: MIC PT20.

Consider `Fc1ccc2[nH]ccc2c1` [Compound 1, 5-Fluoroindole], for which the MIC in assay [1], in assay [2] and in assay [3] was 4.7 µM (≈ 0.635 µg/mL) throughout.
Take `NNC(=O)c1ccncc1` [INH, isoniazid, reference compound]: the MIC in assay [1] is 146 µM (≈ 20 µg/mL).
